In experiment [1] the target is T1, Human UII receptor, 6D9 human rhabdomyosarcoma cells (Homo sapiens, UniProt Q9UKP6).
T1 construct: 6D9: isolated by dilution subcloning of RMS13 cells, ATCC® Number: CRL-2061; host or cells: 6D9 human rhabdomyosarcoma cells (subclone of RMS13)
T1 sequence (Q9UKP6 1-389): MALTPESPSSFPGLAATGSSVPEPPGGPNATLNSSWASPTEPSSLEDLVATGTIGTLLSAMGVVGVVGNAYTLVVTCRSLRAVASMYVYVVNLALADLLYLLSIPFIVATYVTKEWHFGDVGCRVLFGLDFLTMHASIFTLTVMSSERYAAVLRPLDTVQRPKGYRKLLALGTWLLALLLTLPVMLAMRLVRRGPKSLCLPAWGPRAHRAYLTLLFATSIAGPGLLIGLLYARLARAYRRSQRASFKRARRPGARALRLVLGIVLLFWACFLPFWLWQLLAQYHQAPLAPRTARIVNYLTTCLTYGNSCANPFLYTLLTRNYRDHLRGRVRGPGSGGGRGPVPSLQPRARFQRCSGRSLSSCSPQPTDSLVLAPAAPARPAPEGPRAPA
The experiment can be described thus: Human UII Calcium Mobilization Assay. The following applies: average value, FLIPR TETRA, read-out: Human UII Ca^+ Mobilization Average IC50. The experiment is classed as cell-based. The essentials:
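6D9 rhabdomyosarcoma cells loaded 45 min at 37° C with calcium dye (1.25 mM probenecid, 0.01% FBS, HBSS/20 mM HEPES). Antagonist and U-II agonist added at room temperature; FLIPR fluorescence read over 4 min; EC50/IC50 fitted. DMSO ≤0.1% final.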

For experiment [2], the target named is T2, endogenous human UII receptor (Homo sapiens, UniProt Q9UKP6).
T2 sequence (Q9UKP6 1-389): T1 sequence (Q9UKP6 1-389)
The experiment can be described thus: Human Radioligand Binding Assay ((^125I)-U-II binding to human skeletal muscle myoblasts).

In experiment [3] the target is T3, rat GPR14 (U-II receptor) (Rattus norvegicus, UniProt P49684).
T3 construct: expressed in transfected cells
T3 sequence (P49684 1-386): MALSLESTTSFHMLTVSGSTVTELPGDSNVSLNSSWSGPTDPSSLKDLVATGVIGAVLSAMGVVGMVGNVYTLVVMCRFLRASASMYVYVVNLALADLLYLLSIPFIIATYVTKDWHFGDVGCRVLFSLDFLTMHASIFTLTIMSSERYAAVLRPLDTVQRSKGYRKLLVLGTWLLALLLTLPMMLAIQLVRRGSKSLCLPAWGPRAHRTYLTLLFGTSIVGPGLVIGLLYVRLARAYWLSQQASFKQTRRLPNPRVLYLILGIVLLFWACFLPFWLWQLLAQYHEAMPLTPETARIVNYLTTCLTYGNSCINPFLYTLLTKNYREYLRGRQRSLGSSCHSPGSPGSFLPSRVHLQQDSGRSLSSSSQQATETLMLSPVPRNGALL
The experiment in a line: Rat UII Calcium Mobilization FLIPR Assay. The experiment is classed as cell-based. The settings on record: average value for the compound tested; read-out: Rat UII FLIPR Average IC50. The essentials:
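CHO cells stably expressing rat U-II receptor, seeded 24 h before assay, were loaded with FLIPR calcium dye in HBSS/20 mM HEPES/0.1% BSA/2.5 mM probenecid, pH 7.4, for 1 h at 37° C. Calcium mobilization then read by FLIPR at 23° C.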
In general terms: Calcium assays in cells follow changes in intracellular calcium, usually with a dye or a luminescent sensor.

Experiment [4] has as its system isolated arterial rings of humans. The settings on record: read-out: EC50 of contraction; cited from earlier work.
For experiment [5], the system named is isolated arterial rings of rats. The settings on record: read-out: EC50 of contraction; cited from earlier work.
Experiment [6] has as its target T3, rat GPR14 (U-II receptor). The settings on record: agonist peptide, CHO cells transfected with rat GPR14; read-out: FLIPR EC50; cited from earlier work.
The target of a further experiment is T4, rU-II receptor (Rattus norvegicus, UniProt P49684).
T4 sequence (P49684 1-386): T3 sequence (P49684 1-386)
The following applies: agonist peptide; cited from earlier work.

Here are results for 5 molecules from US8193191B2, “Urotensin II receptor antagonists” (Janssen Pharmaceutica N.V., priority 2006, dated 2012).

In general, IC50 refers to the concentration at which inhibition is half-maximal. By Ki is commonly meant a dissociation constant, usually derived from enzyme kinetics or from competition with a known ligand. As usually defined, the EC50 is the concentration needed to bring the measured effect to its halfway point.

As to `CCN1CCN(c2cccc3c2C(=O)N(C(CC2CCN(Cc4ccccc4)CC2)c2ccc(OC)c(OC)c2)C3=O)CC1` (stereo not shown) [Cpd 232, 2-[2-(1-benzyl-piperidin-4-yl)-1-(3,4-dimethoxy-phenyl)-ethyl]-4-(4-ethyl-piperazin-1-yl)-isoindole-1,3-dione], the IC50 in experiment [1] was 4100 nM; in experiment [3], 410 nM. Besides, the Ki in experiment [2] is > 300 nM.

On to `CCN1CCN(c2cccc3c2C(=O)N(C(CC2CCN(S(=O)(=O)O)CC2)c2ccc(OC)c(OC)c2)C3=O)CC1` (stereo not shown) [Cpd 233, 4-{2-(3,4-dimethoxy-phenyl)-2-[4-(4-ethyl-piperazin-1-yl)-1,3-dioxo-1,3-dihydro-isoindol-2-yl]-ethyl}-piperidine-1-sulfonic acid], for which the IC50 is 770 nM in experiment [1] and 660 nM in experiment [3]. The molecule further gave a Ki in experiment [2] of 57 nM.

Consider `CCN1CCN(c2cccc3c2C(=O)N(C(CC2CCN(S(=O)(=O)c4cccs4)CC2)c2ccc(OC)c(OC)c2)C3=O)CC1` (stereo not shown) [Cpd 234, 2-{1-(3,4-dimethoxy-phenyl)-2-[1-(thiophene-2-sulfonyl)-piperidin-4-yl]-ethyl}-4-(4-ethyl-piperazin-1-yl)-isoindole-1,3-dione], for which the IC50 in experiment [1] stood at 1700 nM; in experiment [3], 51 nM. This molecule also yielded a Ki in experiment [2] of 280 nM.

As to “AGTAD-cyclo(CFWKYC)—V [Goby U-II, Urotensin-II isolated from the urophysis of the goby fish (Gillichthys mirabilis) as a 12-mer]”, the EC50 in experiment [4] and in experiment [5] was < 1 nM each time.

For the molecule “Acetyl-cyclic[Cys-Phe-Trp-Lys-(2-Nal)-Cys]-NH2 [(Ac)—CFWK(2-NaI)C—NH2, agonist cyclic peptide used at 1 nM to induce Ca2+ mobilization in the rat UII FLIPR assay]”, the EC50 in experiment [6] is 0.54 ± 0.2 nM. Besides, on rU-II receptor, the Ki was 0.12 ± 0.05 nM.
